We go through one compound from US12263155B2, “Combinations of monoamine oxidase inhibitors and serotonin receptor agonists and their therapeutic use” (Remedi, Inc., priority 2022, dated 2025).

One assay concerns the target T1, rat brain MAO-B (Rattus norvegicus, UniProt P19643).
T1 construct: from tissue; host or cells: rat brain
T1 sequence (P19643 1-520): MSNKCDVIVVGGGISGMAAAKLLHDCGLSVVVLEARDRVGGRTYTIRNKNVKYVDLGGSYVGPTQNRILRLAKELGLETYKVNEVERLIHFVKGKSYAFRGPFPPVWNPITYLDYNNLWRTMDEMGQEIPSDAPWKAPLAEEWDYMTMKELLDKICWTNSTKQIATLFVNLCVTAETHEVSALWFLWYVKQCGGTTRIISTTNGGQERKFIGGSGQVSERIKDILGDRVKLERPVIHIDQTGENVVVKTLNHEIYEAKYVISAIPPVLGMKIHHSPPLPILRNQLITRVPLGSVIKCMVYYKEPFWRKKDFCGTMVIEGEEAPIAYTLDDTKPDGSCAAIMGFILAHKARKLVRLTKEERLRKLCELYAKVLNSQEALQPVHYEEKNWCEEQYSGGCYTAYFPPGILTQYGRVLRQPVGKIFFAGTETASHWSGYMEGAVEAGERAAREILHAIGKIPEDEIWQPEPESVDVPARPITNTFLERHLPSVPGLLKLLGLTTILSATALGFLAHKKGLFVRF
Briefly: In vitro inhibition of rat brain MAO-B. To be noted: 10 μM [14C]-PEA, all concentrations tested. The format is biochemical. How it is done:
(§1) Methods: The soluble extract of the mitochondrial enriched fraction (P2 pellet), which was prepared from brain homogenates of male Sprague-Dawley rats, served as the source of MAO-A enzymatic activity. The P2 fraction was prepared and was stored frozen until being thawed for use on the day of assay. Final concentrations of 50 μM [^14C]-serotonin (5-HT) and 10 μM [^14C]-phenylethylamine (PEA) were employed as specific substrates for MAO-A and MAO-B, respectively. Test compound inhibition was based on competition for oxidation of these radio-labeled substrates. MAO-A assay specificity was enhanced by inclusion of 0.1 μM deprenyl to prevent substrate oxidation by MAO-B. Likewise, MAO-B assays included 0.1 μM clorgyline to block MAO-A activity. […] Inhibition of enzymatic activities was expressed as IC50 and as the Ki, which was calculated using the Cheng-Prusoff equation.

In a further assay the target is T2, rat brain MAO-A (Rattus norvegicus, UniProt P21396).
T2 construct: prepared from brain homogenates of male Sprague-Dawley rats, served as the source of MAO-A enzymatic activity; from tissue
T2 sequence (P21396 1-526): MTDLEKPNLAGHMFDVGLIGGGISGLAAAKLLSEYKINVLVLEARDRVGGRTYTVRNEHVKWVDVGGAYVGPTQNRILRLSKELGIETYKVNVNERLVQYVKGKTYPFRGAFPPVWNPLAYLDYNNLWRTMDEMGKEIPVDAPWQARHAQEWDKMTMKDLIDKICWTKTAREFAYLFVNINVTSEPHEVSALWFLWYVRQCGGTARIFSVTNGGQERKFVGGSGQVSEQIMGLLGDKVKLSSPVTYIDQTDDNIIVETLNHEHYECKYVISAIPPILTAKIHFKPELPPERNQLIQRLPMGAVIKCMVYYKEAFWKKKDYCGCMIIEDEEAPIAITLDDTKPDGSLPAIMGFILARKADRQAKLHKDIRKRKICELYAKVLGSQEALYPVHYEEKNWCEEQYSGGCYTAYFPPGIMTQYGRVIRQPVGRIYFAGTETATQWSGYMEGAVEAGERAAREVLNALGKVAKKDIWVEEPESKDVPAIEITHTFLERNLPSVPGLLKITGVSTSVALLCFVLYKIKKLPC
Briefly: In vitro inhibition of rat brain MAO-A. It counts as biochemical. The procedure:
as §1

A further assay addresses T3, rat liver MAO-A (Rattus norvegicus, UniProt P21396).
T3 construct: from tissue; host or cells: rat liver
T3 sequence (P21396 1-526): T2 sequence (P21396 1-526)
Description: In vitro inhibition of rat liver MAO-A. The format is biochemical. How it is done: as §1, with “Methods: The soluble extract of the mitochondrial enriched fraction (P2 pellet), which was prepared from brain homogenates of male Sprague-Dawley rats, served as the source of MAO-A enzymatic activity.” left out

The test system of assay [1] is 69 binding sites in nine classes. Briefly: NovaScreen ligand-binding screen, other binding sites. To be noted: 10.0 nM and 100 nM. The procedure:
Methods: Investigational drug candidates CX157 were analyzed in NovaScreen's bank of ligand-binding reactions to test for specificity. CX157 was screened at concentrations of both 10.0 nM and 100 nM as potential competitors in binding reactions involving nine classes containing 69 binding sites. The following binding reactions are tested: Adenosine Non-selective, Adrenergic Alpha 1 Non-selective, Adrenergic Alpha 2 Non-selective, Adrenergic Beta Non-selective, Dopamine Transporter, Dopamine Non-selective, GABA A Agonist Site, GABA A BDZ alpha 1 site, GABA B, Glutamate AMPA Site (Ionotropic), Glutamate Kainate Site (Ionotropic), Glutamate NMDA Agonist Site (Ionotropic), Glutamate NMDA Glycine (Stry-insens Site) (Ionotrophic), Glycine Strychnine-sensitive, Histamine H1, Histamine H2, Histamine H3, Melatonin Non-selective, Muscarinic M1 (hr), Muscarinic M2 (hr), Muscarinic Non-selective Central, Muscarinic Non-selective Peripheral, Nicotinic (α-BnTx insensitive) Neuronal, Norepinephrine Transporter, Opioid Non-selective, Orphanin (hr), Serotonin Transporter, Serotonin Non-selective, Sigma Non-selective, Estrogen, Testosterone (cytosolic), Calcium Channel Type L (Dihydropyridine Site), Calcium Channel Type N, Potassium Channel ATP-Sensitive, Potassium Channel Ca2+ Act. VI, Potassium Channel I[Kr]

As to `O=S1(=O)c2ccc(F)cc2Oc2cc(OCC(F)(F)F)ccc21` [CX157, 3-fluoro-7(2,2,2-trifluorethoxy)phenoxathiine-10,10-dioxide], the “inhibition of rat brain MAO-B” value at rat brain MAO-B is “did not inhibit”. Further, the results for the “Ki for CX157/Ki for RO-41-1049” value on rat brain MAO-A (Brain MAO-A) and at rat liver MAO-A (Liver MAO-A) were 0.006 and 0.126, respectively. In addition, the “Ki fold lower than reference compound RO 41-1049” value at rat brain MAO-A (rat brain MAO-A) was above 10 fold. Also, the IC50 at rat brain MAO-A (rat brain P2 extract, 50 μM [14C]-5-HT) is 0.09 nM; on rat liver MAO-A (rat liver, 50 μM [14C]-5-HT), 2.22 nM. The Ki turned out to be 0.09 nM on rat brain MAO-A (rat brain, Cheng-Prusoff) and 0.91 nM on rat liver MAO-A (rat liver, Cheng-Prusoff). In addition, the “interactions with other binding sites in the screen” value in assay [1] is recorded as “no interactions”.
